How the values were obtained:
[1] = tested on: Hill reaction; assay: Hill reaction activity of treated Crofton weed leaves; format: biochemical; details: 50 μg/mL, strong light 12 hours
Protocol: (§1) Compounds 10-57 were dissolved in small amount of methanol. The solutions were then diluted with distilled water to a concentration of 50 μg/mL. A mixture of methanol and water in the same ratio as the sample solution was also prepared and used as control in the experiment. The healthy leaves of Crofton weed were washed in water for 30 minutes and then rinsed with distilled water. The clean and tissue dried leaves were placed in petri dish with the back-side of the leaves facing up. Wet filter paper was also placed in the in petri dish for moisture control. Water, methanol and chemical solutions of the analogues were applied to the back-side of each leaf. Test sample was then placed in vacuum chamber at 25° C. for 15 min followed by exposure to the strong light (400 μM m^−2 s^−1) for 12 hours. The leaf sample went through a series of test, and the Hill reaction rate, the electron transfer activity and fluorescence of chlorophyll were measured. Four leaves were used for each treatment and each test was repeated three times.

[2] = tested on: Crofton weed; assay: Spray on leaves and stems of three-leaf-stage Crofton weed seedlings grown in pots in a greenhouse; format: in vivo; set-up: key: 4: Plant completely dead; 3: Two thirds of the plant stems and leaves dried out; 2: Half of the plant stems and leaves dried out; 1: One third of the plant stems and leaves dried out; 0: No damage at all; details: 50 μg/mL spray, assessed two days later
Protocol: Compounds 1, 2, 3, and 40 were separately dissolved in a small amount of methanol. The solutions were then diluted with distilled water to a concentration of 50 μg/mL. A mixture of methanol and water in the same ratio as the sample solution was also prepared and used as control in the experiment. The solutions were sprayed on leaves and stems of three-leaf-stage Crofton weed seedlings. All the plants were grown in pot in a greenhouse. The leaves were properly wet by the solutions for consistency and the treatment was repeated 3 times. The measurement of the plant damage was calculated by the formula: Damage Index=Σ(damage level×number of plants)×100/4/number of plants in each treatment.

[3] = tested on: fluorescence of chlorophyll; assay: Fluorescence of chlorophyll of treated Crofton weed leaves; format: biochemical; details: 50 μg/mL, strong light 12 hours
Protocol: as §1

[4] = tested on: Crofton weed; assay: Needle puncture test on Crofton weed with washes recovered from compound-treated soil; format: in vivo; details: after soil treatment (3 hours)
Protocol: Compounds 1, 2, 3, and 40 were dissolved in small amount of methanol and diluted with distilled water to concentration of 50 μg/mL. The solution was sprayed to the soil sample until the soil was wet but not overflows. After standing at room temperature for 3 hours, the soil sample was washed with water and methanol. The wash solution was collected and concentrated. Such process was repeated three times. The concentrated solutions were used for herbicidal activity test using the method of needle puncture on Crofton weed. Methanol water solution and pure water were used as control. The experiment for every sample was repeated six times. The spot diameters were measured with vernier caliper after the plant was kept under natural light at 25° C. for 24 hours (Table 11).

[5] = tested on: Crofton weed; assay: Needle puncture pathogenic test on slightly wounded leaf of Crofton weed; format: in vivo; details: Crofton weed leaf; for Time of Disease spot / Average diameter of spot after 24 h: 50 μg/mL, 25° C., natural light
Protocol: 3-acetyl-5-sec-butyl-4-hydroxy-3-pyrrolin-2-one analogs were dissolved in a small amount of methanol and diluted with water to a concentration of 5-100 μg/g. A pathogenic test was conducted by placing the toxic liquid on the slightly wounded leaf of Crofton weed with a needle. The test has shown that the pathogenic capability of 3-acetyl-5-sec-butyl-4-hydroxy-3-pyrrolin-2-one analogs with respect to Crofton weed increases with the increase of concentration. The spot diameter caused on the leaf of Crofton weed after 24 hours was 2 mm at 50 μg/g.
3-acetyl-5-sec-butyl-4-hydroxy-3-pyrrolin-2-one analogue (Table 3, compounds 10-57) was dissolved in small amount of methanol. The solution was then diluted with distilled water to a concentration of 50 μg/mL. Methanol solution with same concentration and pure distilled water were used as control of the experiment. A pathogenic test was conducted by placing the toxic liquid on the slightly wounded leaf of Crofton weed with a needle. The experiment was carried out at 25° C. under the natural light and each test was repeated 6 times. It was measure the diameter of the spot after 24 h. […] The size of the side chain also has an effect on their activity.
Fourteen salts of 3-acetyl-5-sec-butyl-4-hydroxy-3-pyrrolin-2-one analogs were dissolved in small amount of methanol and diluted with distilled water to a concentration of 50 μg/mL. Methanol/water mixture was also prepared and used as control. Needle puncture method was used for the test on the small pieces of Crofton weed. Each treatment was repeated six times or more. The test samples were kept under natural light at 25° C. for 24 hours. The diameters of damaged spot of the plant leaves were measured by vernier caliper.

[6] = tested on: photosystem II; assay: PSII oxygen evolution / electron transfer activity of treated Crofton weed leaves; format: biochemical; details: 50 μg/mL, strong light 12 hours
Protocol: as §1

SMILES | Activity of Hill Reaction [1] | Damage level [2] | Fv/Fm [3] | Average diameter of the spot after 24 h, H2O wash ([4]; H2O wash) | Average diameter of the spot after 24 h, Methanol wash ([4]; Methanol wash) | Avg. diameter of the spot after 24 h ([5]; 24 h, analogs with formula (I) and (II)) | Time of disease spot to occur ([5]; analogs with formula (I) and (II)) | PSII Activity of oxygen evolution [6] | Time of Disease spot [5] | Average diameter of spot after 24 h ([5]; 24 h)
CCC(C)C1NC(=O)CC1=O (stereo not drawn) [Compound 1] | 98.76 uMO2/mgChlh | 2 | 0.82 | 0.223 ± 0.077 mm | 0.292 ± 0.041 mm | 1.97 ± 0.04 mm | 22.3 ± 0.77 h | 50.89 uMO2/mgChlh | – | –
CCCC(c1ccccc1)C1NC(=O)C(C(C)=O)=C1O (stereo not drawn) [Compound 20] | 57.23 uMO2/mgChlh | – | 0.82 | – | – | – | – | 43.40 uMO2/mgChlh | 21.1 ± 3.56 h | 1.57 ± 0.04 mm
CC=CC1NC(=O)C(C(C)=O)=C1O (stereo not drawn) [Compound 21] | 62.34 uMO2/mgChlh | – | 0.77 | – | – | – | – | 42.25 uMO2/mgChlh | 16.5 ± 1.30 h | 2.89 ± 0.14 mm
CC(=O)C1=C(O)C(C)(C)NC1=O [Compound 22] | 56.16 uMO2/mgChlh | – | 0.82 | – | – | – | – | 38.05 uMO2/mgChlh | 20.0 ± 1.63 h | 1.76 ± 0.24 mm
CCC1(CC)NC(=O)C(C(C)=O)=C1O [Compound 23] | 63.28 uMO2/mgChlh | – | 0.79 | – | – | – | – | 38.24 uMO2/mgChlh | 18.3 ± 2.17 h | 2.23 ± 0.12 mm
CCC1(C)NC(=O)C(C(C)=O)=C1O (stereo not drawn) [Compound 24] | 71.37 uMO2/mgChlh | – | 0.83 | – | – | – | – | 43.01 uMO2/mgChlh | 16.21 ± 3.55 h | 2.43 ± 0.07 mm
CCCC1(CCC)NC(=O)C(C(C)=O)=C1O [Compound 25] | 97.55 uMO2/mgChlh | – | 0.82 | – | – | – | – | 57.12 uMO2/mgChlh | 15.22 ± 2.00 h | 2.44 ± 0.10 mm
CCCC1(C)NC(=O)C(C(C)=O)=C1O (stereo not drawn) [Compound 26] | 89.15 uMO2/mgChlh | – | 0.82 | – | – | – | – | 58.01 uMO2/mgChlh | 13.61 ± 1.35 h | 3.31 ± 0.07 mm
CCCC1(CC)NC(=O)C(C(C)=O)=C1O (stereo not drawn) [Compound 27] | 91.45 uMO2/mgChlh | – | 0.81 | – | – | – | – | 53.24 uMO2/mgChlh | 14.2 ± 4.15 h | 3.18 ± 0.93 mm
CCCCC1(CCCC)NC(=O)C(C(C)=O)=C1O [Compound 28] | 75.03 uMO2/mgChlh | – | 0.82 | – | – | – | – | 31.76 uMO2/mgChlh | 16.9 ± 2.25 h | 2.40 ± 0.11 mm
CCCCC1(CC)NC(=O)C(C(C)=O)=C1O (stereo not drawn) [Compound 30] | 47.33 uMO2/mgChlh | – | 0.79 | – | – | – | – | 22.78 uMO2/mgChlh | 13.3 ± 2.00 h | 4.53 ± 1.03 mm
CCC(C)(C)C1NC(=O)C(C(C)=O)=C1O (stereo not drawn) [Compound 32] | 63.42 uMO2/mgChlh | – | 0.82 | – | – | – | – | 32.13 uMO2/mgChlh | 12.5 ± 3.75 h | 4.82 ± 1.44 mm

— patent US9468209B2, “Method for eradicating weeds with derivatives of 3-acetyl-5-sec-butyl-4-hydroxy-3-pyrrolin-2-one” (priority 2012, dated 2016)
